Tests used:
[1] = target: T1, recombinant METTL3/METTL14 complex (Homo sapiens, UniProt Q86U44); assay: METTL3/14 Scintillation Proximity Assay (SPA), RNA methyltransferase activity; type: biochemical; conditions: 5.31 nM METTL3/14 complex, 250 nM RNA substrate, 1 μM 3H-SAM, 90 min; for compounds marked * best of the two separated forms
T1 construct: purchased Active Motif 311970; host or cells: Sf9 cells

[2] = system: Caov-3 cells; assay: Caov-3 cellular viability assay (ATP-Lite, 72 h); type: cell-based; conditions: Homo sapiens, ATP-Lite luminescence, % viability relative to DMSO
In short: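 10000 cells/well treated 72 h at 37 °C, 5% CO2, in RPMI-1640 with 10% FBS and 0.1% DMSO final. Viability by ATP-Lite One Step luminescence. Expressed as % of DMSO control, with IC50 from each compound's concentration-response curve.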

[3] = system: Kasumi-1 cells; assay: Kasumi-1 cellular viability assay (ATP-Lite, 72 h); type: cell-based; conditions: Homo sapiens, ATP-Lite luminescence, % viability relative to DMSO
In short: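 Kasumi-1 AML cells, 15000/well in RPMI-1640 with 10% FBS, were exposed to compound titrations (0.1% final DMSO) for 72 h at 37 °C, 5% CO2. ATP-Lite One Step luminescence gave % viability versus DMSO control, and IC50 came from the concentration-response.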

T1 sequence (Q86U44 whole entry): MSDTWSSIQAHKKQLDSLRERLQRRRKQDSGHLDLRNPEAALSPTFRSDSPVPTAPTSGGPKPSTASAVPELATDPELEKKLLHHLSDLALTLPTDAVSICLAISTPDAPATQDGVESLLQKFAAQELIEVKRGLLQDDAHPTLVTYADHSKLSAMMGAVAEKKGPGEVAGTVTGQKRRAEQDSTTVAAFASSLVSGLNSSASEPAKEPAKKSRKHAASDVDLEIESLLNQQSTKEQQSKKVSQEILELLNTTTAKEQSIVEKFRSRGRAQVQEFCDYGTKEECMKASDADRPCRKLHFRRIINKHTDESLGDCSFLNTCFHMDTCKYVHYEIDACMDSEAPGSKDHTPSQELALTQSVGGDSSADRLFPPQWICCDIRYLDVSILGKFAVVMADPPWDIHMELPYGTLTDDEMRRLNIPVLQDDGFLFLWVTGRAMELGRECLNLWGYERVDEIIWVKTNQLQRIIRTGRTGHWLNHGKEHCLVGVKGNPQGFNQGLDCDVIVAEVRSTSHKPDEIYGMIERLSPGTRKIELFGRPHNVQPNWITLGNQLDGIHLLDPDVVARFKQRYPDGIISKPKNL
T1 sequence (Q9HCE5 whole entry partner): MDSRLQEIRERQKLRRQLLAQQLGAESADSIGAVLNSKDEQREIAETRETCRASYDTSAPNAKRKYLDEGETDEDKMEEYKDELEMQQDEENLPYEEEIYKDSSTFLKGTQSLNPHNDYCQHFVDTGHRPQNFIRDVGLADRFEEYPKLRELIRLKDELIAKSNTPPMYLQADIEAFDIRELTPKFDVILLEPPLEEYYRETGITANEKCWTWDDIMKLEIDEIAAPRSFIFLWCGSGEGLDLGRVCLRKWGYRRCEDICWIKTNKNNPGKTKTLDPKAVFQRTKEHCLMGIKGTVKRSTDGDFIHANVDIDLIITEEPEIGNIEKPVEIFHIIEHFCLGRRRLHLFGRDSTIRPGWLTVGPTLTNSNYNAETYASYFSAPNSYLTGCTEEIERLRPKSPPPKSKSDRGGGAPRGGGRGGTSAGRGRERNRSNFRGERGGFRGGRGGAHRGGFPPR

Structure (SMILES) | IC50 [1] [nM] | IC50 [2] [nM] | IC50 [3] [nM]
CC(c1nnc(-c2cncc(N(C)C)n2)s1)n1ccc(N2CCC[C@@H](NCC3CC3)C2)cc1=O (stereo partly drawn) [Compound 231, 4-((R)-3-((cyclopropylmethyl)amino)piperidin-1-yl)-1-(1-(5-(6-(dimethylamino)pyrazin-2-yl)-1,3,4-thiadiazol-2-yl)ethyl)pyridin-2(1H)-one] | ≤ 50 | ≤ 500 | ≤ 500
c1cc(-c2cn(Cc3ccc(N4CCC[C@@H](NCC5CCC5)C4)nn3)nn2)c2cncn2c1 [Compound 003, (R)-N-(cyclobutylmethyl)-1-(6-((4-(imidazo[1,5-a]pyridin-8-yl)-1H-1,2,3-triazol-1-yl)methyl)pyridazin-3-yl)piperidin-3-amine] | ≤ 50 | > 5000 | 500 to 5000
O=C(Nc1cnc2ccccc2n1)C1(c2ccc(N3CCC[C@@H](NCC4CCC4)C3)cn2)COC1 [Compound 297, (R)-3-(5-(3-((cyclobutylmethyl)amino)piperidin-1-Yl)pyridin-2-yl)-N-(quinoxalin-2-yl)oxetane-3-carboxamide] | ≤ 50 | 500 to 5000 | > 5000
c1ncc(N2CCCC2)cc1-c1cn(C2(c3ccc(N4CCC[C@@H](NCC5CC5)C4)nc3)COC2)nn1 [Compound 223, (R)-N-(cyclopropylmethyl)-1-(5-(3-(4-(5-(pyrrolidin-1-yl)pyridin-3-yl)-1H-1,2,3-triazol-1-yl)oxetan-3-yl)pyridin-2-yl)piperidin-3-amine] | ≤ 50 | ≤ 500 | ≤ 500
O=C(NC(c1ccc(N2CCC[C@@H](NCC3CCC3)C2)nn1)C(F)(F)F)c1cc(=O)n2ccccc2n1 (single isomer, unassigned) [Compound 065] | ≤ 50 | 500 to 5000 | > 5000
CC1(CN[C@@H]2CCCN(c3ccc(C4(c5nnc(-c6cncc(C7CC7)c6)s5)COC4)nc3)C2)CC1 [Compound 368, (R)-1-(6-(3-(5-(5-cyclopropylpyridin-3-yl)-1,3,4-thiadiazol-2-yl)oxetan-3-yl)pyridin-3-yl)-N-((1-methylcyclopropyl)methyl)piperidin-3-amine] | ≤ 50 | ≤ 500 | ≤ 500
COc1cnc(C#N)c(-c2cn(Cc3ccc(N4CCC[C@@H](NCC5CCC5)C4)nn3)nn2)c1 [Compound 019, (R)-3-(1-((6-(3-((cyclobutylmethyl)amino)piperidin-1-yl)pyridazin-3-yl)methyl)-1H-1,2,3-triazol-4-yl)-5-methoxypicolinonitrile] | ≤ 50 | > 5000 | > 5000
COc1cncc(-c2nnc(Cn3ccc(N4CCC[C@@H](NCC5CCC5)C4)cc3=O)s2)c1 [Compound 077, (R)-4-(3-((cyclobutylmethyl)amino)piperidin-1-yl)-1-((5-(5-methoxypyridin-3-yl)-1,3,4-thiadiazol-2-yl)methyl)pyridin-2(1H)-one] | ≤ 50 | 500 to 5000 | 500 to 5000
CC(c1cnn(-c2cc(N3CCCC3)cnn2)c1)n1ccc(N2CCC[C@@H](NCC3CC3)C2)cc1=O (single isomer, unassigned) [Compound 219] | ≤ 50 | ≤ 500 | 500 to 5000
CN1CC(c2ccc(N3CCC[C@@H](NCC4CC4)C3)cn2)(n2cc(-c3cncc(C4CC4)c3)nn2)C1 [Compound 350, (R)-N-(cyclopropylmethyl)-1-(6-(3-(4-(5-cyclopropylpyridin-3-yl)-1H-1,2,3-triazol-1-yl)-1-methylazetidin-3-yl)pyridin-3-yl)piperidin-3-amine] | ≤ 50 | 500 to 5000 | 500 to 5000
CC(c1ccc(N2CCC[C@@H](NCC3CCC3)C2)nn1)n1cc(-c2cncc(N3CC4CC4C3)n2)nn1 (single isomer, unassigned) [Compound 284] | ≤ 50 | ≤ 500 | ≤ 500
COc1cc(-c2cn(Cc3cnc(N4CCCC(NCC5CCC5)C4)s3)nn2)c2cn[nH]c2c1 (stereo not drawn) [Compound 026, N-(cyclobutylmethyl)-1-(5-((4-(6-methoxy-1H-indazol-4-yl)-1H-1,2,3-triazol-1-yl)methyl)thiazol-2-yl)piperidin-3-amine] | ≤ 50 | > 5000 | 500 to 5000
CC(c1ccc(N2CCC[C@@H](NCC3CCC3)C2)nn1)n1cnc(-c2cncc(N(C)C)c2)c1 (stereo partly drawn) [Compound 173, 5-(1-(1-(6-((R)-3-((cyclobutylmethyl)amino)piperidin-1-yl)pyridazin-3-yl)ethyl)-1H-imidazol-4-yl)-N,N-dimethylpyridin-3-amine] | ≤ 50 | ≤ 500 | ≤ 500
CC(n1cc(-c2cncc(N3CC(F)(F)C3)c2)nn1)n1ccc(N2CCC[C@@H](NCC3CC3)C2)cc1=O (stereo partly drawn) [Compound 197] | ≤ 50 | 500 to 5000 | 500 to 5000
COc1cc(-c2cn(Cc3nnc(N4CCCC(NCC5CCC5)C4)s3)nn2)c2cn[nH]c2c1 (stereo not drawn) [Compound 036, N-(cyclobutylmethyl)-1-(5-((4-(6-methoxy-1H-indazol-4-yl)-1H-1,2,3-triazol-1-yl)methyl)-1,3,4-thiadiazol-2-yl)piperidin-3-amine] | ≤ 50 | > 5000 | > 5000
CC(n1cc(-c2cncc(N3CCC3)c2)nn1)n1ccc(N2CCC[C@@H](NCC3CCC3)C2)cc1=O (single isomer, unassigned) [Compound 161] | ≤ 50 | ≤ 500 | ≤ 500
O=C(Nc1cncc(N2CCCC2)n1)C1(c2ccc(N3CCC[C@@H](NCC45CC(F)(C4)C5)C3)cn2)COC1 [Compound 269, (R)-3-(5-(3-(((3-fluorobicyclo[1.1.1]pentan-1-yl)methyl)amino)piperidin-1-yl)pyridin-2-yl)-N-(6-(pyrrolidin-1-yl)pyrazin-2-yl)oxetane-3-carboxamide] | ≤ 50 | ≤ 500 | ≤ 500
CN(C)c1cncc(-c2cn(C3(c4ccc(N5CCC[C@@H](NCC6CCC6)C5)cc4)COC3)nn2)c1 [Compound 148, (R)-5-(1-(3-(4-(3-((cyclobutylmethyl)amino)piperidin-1-yl)phenyl)oxetan-3-yl)-1H-1,2,3-triazol-4-yl)-N,N-dimethylpyridin-3-amine] | ≤ 50 | ≤ 500 | ≤ 500
O=C(Nc1cncc(N2CCCC2)n1)C1(c2ccc(N3CCC[C@@H](NCC4CCC4)C3)nc2)COC1 [Compound 319, (R)-3-(6-(3-((cyclobutylmethyl)amino)piperidin-1-yl)pyridin-3-yl)-N-(6-(pyrrolidin-1-yl)pyrazin-2-yl)oxetane-3-carboxamide] | ≤ 50 | ≤ 500 | ≤ 500
CC(c1cnn(-c2cncc(C3CC3)c2)c1)c1ccc(N2CCC[C@@H](NCC3CC3)C2)cn1 (single isomer, unassigned) [Compound 356] | ≤ 50 | ≤ 500 | ≤ 500
COc1cncc(-c2cn(Cc3ccc(N4CCC[C@@H](NCC5CCC5)C4)cc3)cn2)c1 [Compound 144, (R)-N-(cyclobutylmethyl)-1-(4-((4-(5-methoxypyridin-3-yl)-1H-imidazol-1-yl)methyl)phenyl)piperidin-3-amine] | ≤ 50 | 500 to 5000 | 500 to 5000
c1ncc(C2CC2)cc1-c1nnc(C2(c3ccc(N4CCC[C@@H](NCC5CC5)C4)cn3)COC2)s1 [Compound 352, (R)-N-(cyclopropylmethyl)-1-(6-(3-(5-(5-cyclopropylpyridin-3-yl)-1,3,4-thiadiazol-2-yl)oxetan-3-yl)pyridin-3-yl)piperidin-3-amine] | ≤ 50 | ≤ 500 | ≤ 500
COc1cncc(-c2cn(Cc3ccc(N4CCC[C@@H](NCC5CCC5)C4)nn3)cn2)c1 [Compound 081, (R)-N-(cyclobutylmethyl)-1-(6-((4-(5-methoxypyridin-3-yl)-1H-imidazol-1-yl)methyl)pyridazin-3-yl)piperidin-3-amine] | ≤ 50 | ≤ 500 | 500 to 5000
CC(c1ccc(N2CCC[C@@H](NCC3CC3)C2)nn1)n1cc(-c2cncc(C3CC3)c2)nn1 (single isomer, unassigned) [Compound 317] | ≤ 50 | ≤ 500 | ≤ 500
c1cc(C2(c3nnc(-c4cncc(N5CCCC5)n4)s3)COC2)ncc1N1CCC[C@@H](NCC2CC2)C1 [Compound 369, (R)-N-(cyclopropylmethyl)-1-(6-(3-(5-(6-(pyrrolidin-1-yl)pyrazin-2-yl)-1,3,4-thiadiazol-2-yl)oxetan-3-yl)pyridin-3-yl)piperidin-3-amine] | ≤ 50 | ≤ 500 | ≤ 500
CN(C)c1cncc(-c2cn(Cc3ccc(N4CCC[C@@H](NCC5CC5)C4)nn3)nn2)c1 [Compound 183, (R)-5-(1-((6-(3-((cyclopropylmethyl)amino)piperidin-1-yl)pyridazin-3-yl)methyl)-1H-1,2,3-triazol-4-yl)-N,N-dimethylpyridin-3-amine] | ≤ 50 | ≤ 500 | 500 to 5000
c1ncc(N2CCCC2)nc1-c1cn(C2(c3ccc(N4CCC[C@@H](NCC5CC5)C4)nn3)COC2)nn1 [Compound 213, (R)-N-(cyclopropylmethyl)-1-(6-(3-(4-(6-(pyrrolidin-1-yl)pyrazin-2-yl)-1H-1,2,3-triazol-1-yl)oxetan-3-yl)pyridazin-3-yl)piperidin-3-amine] | ≤ 50 | ≤ 500 | ≤ 500
